Assays:
[1] = target: T1, Progesterone receptor (Homo sapiens) (UniProt P06401); assay: Inhibition of [3H]R5020 binding to human recombinant progesterone receptor relative to R5020
T1 sequence (whole entry): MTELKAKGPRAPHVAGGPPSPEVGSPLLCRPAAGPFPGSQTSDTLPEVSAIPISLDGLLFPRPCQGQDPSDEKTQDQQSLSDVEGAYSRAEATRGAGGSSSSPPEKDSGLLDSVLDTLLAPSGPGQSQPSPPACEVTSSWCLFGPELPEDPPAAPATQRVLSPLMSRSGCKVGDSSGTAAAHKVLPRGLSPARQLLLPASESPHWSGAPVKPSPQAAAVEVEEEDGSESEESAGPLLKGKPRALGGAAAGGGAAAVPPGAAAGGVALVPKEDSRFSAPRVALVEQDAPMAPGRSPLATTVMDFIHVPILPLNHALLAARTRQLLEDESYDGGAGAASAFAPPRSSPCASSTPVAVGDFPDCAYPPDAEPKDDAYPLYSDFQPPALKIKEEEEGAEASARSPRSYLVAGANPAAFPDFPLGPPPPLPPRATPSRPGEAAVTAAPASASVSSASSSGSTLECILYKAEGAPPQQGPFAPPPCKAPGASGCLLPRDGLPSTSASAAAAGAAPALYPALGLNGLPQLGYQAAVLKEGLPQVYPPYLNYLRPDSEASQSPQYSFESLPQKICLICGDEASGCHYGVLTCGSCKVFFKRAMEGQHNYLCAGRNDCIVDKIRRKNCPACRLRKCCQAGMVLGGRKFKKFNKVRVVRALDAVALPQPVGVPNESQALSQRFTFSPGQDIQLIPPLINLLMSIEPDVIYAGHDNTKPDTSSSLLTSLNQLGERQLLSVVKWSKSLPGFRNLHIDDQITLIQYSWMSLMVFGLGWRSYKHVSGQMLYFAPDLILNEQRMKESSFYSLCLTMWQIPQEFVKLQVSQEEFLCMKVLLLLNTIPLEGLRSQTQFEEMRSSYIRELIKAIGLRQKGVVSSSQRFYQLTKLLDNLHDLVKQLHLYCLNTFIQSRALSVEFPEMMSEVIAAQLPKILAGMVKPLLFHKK

[2] = target: T2, Progesterone receptor (Rattus norvegicus) (UniProt Q63449); assay: Inhibition of [3H]R5020 binding to rat uterine progesterone receptor relative to R5020
T2 sequence (whole entry): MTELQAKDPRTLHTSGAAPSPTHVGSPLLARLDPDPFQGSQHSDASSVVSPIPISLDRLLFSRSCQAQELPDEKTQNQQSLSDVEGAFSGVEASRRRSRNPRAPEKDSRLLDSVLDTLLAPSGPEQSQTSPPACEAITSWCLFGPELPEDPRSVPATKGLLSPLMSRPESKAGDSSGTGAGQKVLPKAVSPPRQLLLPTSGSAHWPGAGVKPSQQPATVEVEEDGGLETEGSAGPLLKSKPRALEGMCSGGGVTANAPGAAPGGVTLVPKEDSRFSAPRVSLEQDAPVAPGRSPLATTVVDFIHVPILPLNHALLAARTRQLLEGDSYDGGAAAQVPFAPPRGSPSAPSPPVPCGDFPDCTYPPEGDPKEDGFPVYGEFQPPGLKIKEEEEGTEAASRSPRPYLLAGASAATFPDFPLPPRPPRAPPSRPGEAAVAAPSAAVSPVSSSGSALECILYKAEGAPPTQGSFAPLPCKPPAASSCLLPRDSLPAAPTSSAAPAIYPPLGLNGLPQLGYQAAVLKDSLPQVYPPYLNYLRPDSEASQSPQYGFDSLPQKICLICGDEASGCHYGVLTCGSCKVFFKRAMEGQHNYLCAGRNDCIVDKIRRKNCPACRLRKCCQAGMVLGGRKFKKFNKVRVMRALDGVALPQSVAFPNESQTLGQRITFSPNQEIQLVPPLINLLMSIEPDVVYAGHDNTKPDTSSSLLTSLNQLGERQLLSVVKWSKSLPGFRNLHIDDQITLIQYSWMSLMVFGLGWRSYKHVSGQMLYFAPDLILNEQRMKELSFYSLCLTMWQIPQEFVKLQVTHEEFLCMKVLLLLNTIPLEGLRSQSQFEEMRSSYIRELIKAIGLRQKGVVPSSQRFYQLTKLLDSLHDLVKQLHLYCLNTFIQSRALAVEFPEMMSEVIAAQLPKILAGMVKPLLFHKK

Compound | relative binding affinity (RBA) [1] | relative binding affinity (RBA) [2]
C[C@]12CC[C@H]3[C@@H](CCC4=CC(=O)CC[C@@H]43)[C@@H]1C[C@H]1O[C@@H](c3ccc(I)o3)O[C@]12C(=O)CO | 23 | 
C[C@]12CC[C@H]3[C@@H](CCC4=CC(=O)CC[C@@H]43)[C@@H]1C[C@H]1O[C@@H](c3ccc(I)s3)O[C@]12C(=O)CO | 3.2 | 
C[C@]12CC[C@H]3[C@@H](CCC4=CC(=O)CC[C@@H]43)[C@@H]1C[C@H]1O[C@H](c3ccc(Br)s3)O[C@]12C(=O)CO | 1.7 | 
C[C@]12CC[C@H]3[C@@H](CCC4=CC(=O)CC[C@@H]43)[C@@H]1C[C@H]1O[C@@H](c3ccc(I)o3)O[C@]12C(=O)CF | 40 | 
C[C@]12CC[C@H]3[C@@H](CCC4=CC(=O)CC[C@@H]43)[C@@H]1C[C@H]1O[C@H](c3ccc(Br)o3)O[C@]12C(=O)CO | 2.3 | 
C[C@]12CC[C@H]3[C@@H](CCC4=CC(=O)CC[C@@H]43)[C@@H]1C[C@H]1O[C@H](c3ccco3)O[C@]12C(=O)CO | 2.4 | 2.5
C[C@]12CC[C@H]3[C@@H](CCC4=CC(=O)CC[C@@H]43)[C@@H]1C[C@H]1O[C@H](c3ccco3)O[C@]12C(=O)CF | 5 | 11
C[C@]12CC[C@H]3[C@@H](CCC4=CC(=O)CC[C@@H]43)[C@@H]1C[C@H]1O[C@@H](c3ccco3)O[C@]12C(=O)CO | 53 | 55
C[C@]12CC[C@H]3[C@@H](CCC4=CC(=O)CC[C@@H]43)[C@@H]1C[C@H]1O[C@@H](c3ccc(Br)o3)O[C@]12C(=O)CF | 24 | 
C[C@]12CC[C@H]3[C@@H](CCC4=CC(=O)CC[C@@H]43)[C@@H]1C[C@H]1O[C@@H](c3ccc(Br)o3)O[C@]12C(=O)CO | 65 | 
C[C@]12CC[C@H]3[C@@H](CCC4=CC(=O)CC[C@@H]43)[C@@H]1C[C@H]1O[C@@H](c3ccc(I)cc3)O[C@]12C(=O)CO | 0.81 | 
C[C@]12CC[C@H]3[C@@H](CCC4=CC(=O)CC[C@@H]43)[C@@H]1C[C@H]1O[C@@H](c3ccc(Br)s3)O[C@]12C(=O)CO | 5.2 | 
C[C@]12CC[C@H]3[C@@H](CCC4=CC(=O)CC[C@@H]43)[C@@H]1C[C@H]1O[C@H](c3ccc(I)cc3)O[C@]12C(=O)CO | 1.8 | 
C[C@]12CC[C@H]3[C@@H](CCC4=CC(=O)CC[C@@H]43)[C@@H]1C[C@H]1O[C@H](c3ccc(Br)cc3)O[C@]12C(=O)CO | 0.41 | 
C[C@]12CC[C@H]3[C@@H](CCC4=CC(=O)CC[C@@H]43)[C@@H]1C[C@H]1O[C@H](c3ccc(I)cc3)O[C@]12C(=O)CF | 34 | 
C[C@]12CC[C@H]3[C@@H](CCC4=CC(=O)CC[C@@H]43)[C@@H]1C[C@H]1O[C@@H](c3ccc(Br)cc3)O[C@]12C(=O)CO | 23 | 
C[C@]12CC[C@H]3[C@@H](CCC4=CC(=O)CC[C@@H]43)[C@@H]1C[C@H]1O[C@@H](c3ccc(Br)cc3)O[C@]12C(=O)CF | 3.9 | 
C[C@]12CC[C@H]3[C@@H](CCC4=CC(=O)CC[C@@H]43)[C@@H]1C[C@H]1O[C@H](c3ccc(I)o3)O[C@]12C(=O)CF | 9 | 
C[C@]12CC[C@H]3[C@@H](CCC4=CC(=O)CC[C@@H]43)[C@@H]1C[C@H]1O[C@H](c3ccc(Br)cc3)O[C@]12C(=O)CF | 4.7 | 
CC(=O)CC(=O)[C@@]12O[C@@H](c3ccc(Br)o3)O[C@@H]1C[C@H]1[C@@H]3CCC4=CC(=O)CC[C@@H]4[C@H]3CC[C@@]12C | 1.4 | 
C[C@]12CC[C@H]3[C@@H](CCC4=CC(=O)CC[C@@H]43)[C@@H]1C[C@H]1O[C@H](c3ccc(I)o3)O[C@]12C(=O)CO | 2.6 | 
C[C@]12CC[C@H]3[C@@H](CCC4=CC(=O)CC[C@@H]43)[C@@H]1C[C@H]1O[C@H](c3ccc(I)s3)O[C@]12C(=O)CO | 0.95 | 
CC(=O)CC(=O)[C@@]12O[C@H](c3ccc(Br)o3)O[C@@H]1C[C@H]1[C@@H]3CCC4=CC(=O)CC[C@@H]4[C@H]3CC[C@@]12C | 7.1 | 
C[C@]12CC[C@H]3[C@@H](CCC4=CC(=O)CC[C@@H]43)[C@@H]1C[C@H]1O[C@H](c3ccc(Br)o3)O[C@]12C(=O)CF | 4.4 | 
C[C@]12CC[C@H]3[C@@H](CCC4=CC(=O)CC[C@@H]43)[C@@H]1C[C@H]1O[C@@H](c3ccco3)O[C@]12C(=O)CF | 180 | 190
C[C@]12CC[C@H]3[C@@H](CCC4=CC(=O)CC[C@@H]43)[C@@H]1C[C@H]1O[C@@H](c3ccc(I)cc3)O[C@]12C(=O)CF | 6.4 | 

— ChEMBL document CHEMBL1138949, “Bromine- and iodine-substituted 16alpha,17alpha-dioxolane progestins for breast tumor imaging and radiotherapy: synthesis and receptor binding affinity” (J Med Chem, 2006)
